Measured values as given in paper PMC9176691, “Design, synthesis and biological evaluation of novel diosgenin–benzoic acid mustard hybrids with potential anti-proliferative activities in human hepatoma HepG2 cells” (Journal of Enzyme Inhibition and Medicinal Chemistry, 2022).

How the values were obtained:
GES-1 cells = assay: MTT cytotoxicity assay, normal GES-1; format: cell-based, human
HepG2 cells [1] = assay: Apoptosis by flow cytometry (Annexin V-FITC/PI); format: cell-based, human; conditions: 48 h
Description: Briefly, HepG2 cells were incubated in 6-well plates for 24 h, and then treated with 14f (0, 5, 10, and 20 µM) for 48 h. Following that, the cells were washed once with pre-cold PBS, re-suspended in 300 µL of buffer solution, and stained with 10 µL of Annexin V-FITC and 5 µL of PI staining solution, under the conditions of 37 °C and absence of any light source, for 10 min. Finally, the samples were immediately measured using a flow cytometer. The percentages of apoptotic cells were determined on the CellQuest™ software (BD Biosciences).

MCF-7 cells = assay: MTT anti-proliferative assay, MCF-7; format: cell-based, human
HepG2 cells [2] = assay: Hoechst 33342/PI staining, cell morphology; format: cell-based, human; conditions: HepG2, 5, 10 and 20 μM, 48 h
Description: First, HepG2 cells were plated into 6-well plates, at a density of 1 × 10^6 cells/well. Thereafter, 14f (0, 5, 10, and 20 µM) was added to the cells and they were incubated with it for 48 h; 0.1% DMSO was used as a vehicle control. The cellular morphology was then observed and photographed using a light microscope (Olympus, 1 × 51, Japan). Next, HepG2 cells were incubated with 14f (0, 5, 10, and 20 µM) for 48 h, after which the cells were collected and stained with a mixture of Hoechst 33342 and PI in buffer solution, for 20 min at room temperature. Finally, the cell samples were studied and photographed under a fluorescence microscope (Obeserve.A1, Zeiss, Germany).

caspase 9 = assay: Caspase 9 activity in cell lysates; format: cell-based, human; conditions: HepG2 cell lysates, 48 h
Description: (§1) The activities of caspase 9 and caspase 3 in the cell lysates were evaluated as described previously. The harvested HepG2 cells treated with varying concentrations of 14f for 48 h were lysed using chilled 100 µL lysis buffer, to extract the total protein. The protein concentration was assessed using a Bradford Kit. The protein samples were incubated with assay buffer and colorimetric substrate (Ac-DEVD-pNA or Ac-LEHD-pNA) at room temperature for 2 h, according to the manufacturer’s protocol. The released pNAs were measured at the wavelength of 405 nm using a Multiskan® Spectrum system. The experiments were performed in triplicate.

[3] = tested on: CDK2, CDK4, CDK6, cyclin D1 and cyclin E1; format: cell-based, human
HepG2 cells [4] = assay: MTT anti-proliferative assay, HepG2; format: cell-based, human
Bax and Bcl-2 = assay: Western blot of Bax and Bcl-2; format: cell-based, human; conditions: HepG2 cells, 48 h
Description: (§2) To analyse the effect of compound 14f on protein levels, western blot assay was employed, as elaborated previously. The proteins were acquired by collecting HepG2 cells treated with varying concentrations of 14f for 48 h and adding them to lysis buffer, in an ice bath for 30 min. After quantitation of protein concentration using BCA assay, equal amounts of total protein were separated using 10% sodium dodecyl sulphate-polyacrylamide gel electrophoresis and then transferred onto polyvinylidene fluoride membranes. The membranes were incubated with 5% bovine serum albumin solution for 1.5 h at 37 °C, followed by incubation with primary antibody overnight, and finally secondary antibody for 2 h at 37 °C. The blots were detected using enhanced chemiluminescence reagent with a fully automatic gel imaging system (ChemiDoc™ MP, Bio-Rad). The relative expression was calculated by normalising the expression of the control group to 1 for comparison.

HeLa cells = assay: MTT anti-proliferative assay, HeLa; format: cell-based; conditions: Homo sapiens, 48 h, read-out: IC50 HeLa
HepG2 cells [5] = assay: Flow cytometric analysis of cell cycle distribution (PI); format: cell-based, human; conditions: 24 h
Description: HepG2 cells were seeded into 6-well plates and allowed to grow for a period of 12 h. After incubation with different concentrations of 14f (0, 5, 10, and 20 µM) for 24 h, the cells were trypsinized, washed with phosphate-buffered saline (PBS), and fixed in 1.5 ml of 75% ethanol for the night, at 4 °C, following which RNase and propidium iodide (PI) (Multi Sciences Biotech Co. Ltd.) were added to the cells. The cell cycle distribution and data processing were analysed using a flow cytometer (FACSCalibur™, BD Biosciences, USA).

caspase 3 = assay: Caspase 3 activity in cell lysates; format: cell-based, human; conditions: HepG2 cell lysates, 48 h
Description: as §1

HepG2 cells [6] = assay: Mitochondrial membrane potential (JC-1, flow cytometry); format: cell-based, human; conditions: 48 h (lower quadrant value)
Description: HepG2 cells were plated into 6-well plates for 12 h. Following treatment with varying concentrations of 14f for 48 h, the cells were incubated with JC-1 dyeing working solution for 0.5 h at room temperature, then washed with staining buffer 3 times and re-suspended in 300 µL of staining buffer. The cells were finally assessed and analysed using a flow cytometer (FACSCalibur™).

[7] = tested on: Bax, Bcl-2, caspase 9, and caspase 3; format: cell-based, human
[8] = tested on: CDK2, CDK4, CDK6, cyclin D1, and cyclin E1; assay: Western blot of G0/G1 phase-related proteins; format: cell-based, human; conditions: HepG2 cells, 48 h
Description: as §2

`CC(=O)OC1CCC2(C)C(=CCC3C2CCC2(C)C3CC3OC(CCC(C)C(=O)N4CCCN(C(=O)c5ccc(N(CCCl)CCCl)cc5)CC4)C(C)C32)C1` [Compound 14f, (22 R,25R)-(4–(1-homopiperazinyl)-4-(bis(2-chloroethyl)amino)benzamido)-3β-acetoxy-5-en-furostan-26-amide] was tested, and the SI (GES-1 cells) was >44.25, the IC50 (GES-1 cells; Homo sapiens, GES1, 48 h, read-out: IC50 GES-1) was > 100 µM and the apoptotic cells (HepG2 cells [1]; HepG2, 14f 5 μM) was 9.80%. For the same compound, the apoptotic cells (HepG2 cells [1]; HepG2, 14f 10 μM) was 14.38%, the apoptotic cells (HepG2 cells [1]; HepG2, 14f 20 μM) was 28.13% and the “fold more active than DSG” value (MCF-7 cells) was “about 1.7 fold”. For the same compound, the IC50 (MCF-7 cells; Homo sapiens, MCF7, 48 h, read-out: IC50 MCF-7) was 11.1 ± 1.01 µM, the “apoptosis seen by Hoechst 33342/PI staining” value (HepG2 cells [2]) was “increase in the apoptosis of HepG2 cells” and the “enzyme activity of caspase 9” value (caspase 9) was “upregulated”. For the same compound, the “genes levels of CDK2, CDK4, CDK6, cyclin D1 and cyclin E1” value [3] was “decreased”, the “potency fold higher than that of Mitomycin C” value (HepG2 cells [4]) was 14.4 fold and the IC50 (HepG2 cells [4]; Homo sapiens, HepG2, 48 h, read-out: IC50 HepG2) was 2260 ± 870 nM. The “protein levels of Bax” value (Bax and Bcl-2) was “upregulated”, the “protein levels of Bcl-2” value (Bax and Bcl-2) was “downregulation” and the IC50 (HeLa cells) was 41.6 ± 3.12 µM. For the same compound, the “effect on the cell cycle” value (HepG2 cells [5]; HepG2, 5, 10 and 20 µM) was “arrested the cell cycle at the G0/G1 phase”, the “cells in G0/G1 phase” value (HepG2 cells [5]; HepG2, 14f 5 μM) was 33.76% and the “cells in G0/G1 phase” value (HepG2 cells [5]; HepG2, 14f 10 μM) was 40.38%. The “cells in G0/G1 phase” value (HepG2 cells [5]; HepG2, 14f 20 μM) was 46.40%, the “enzyme activity of caspase 3” value (caspase 3) was “upregulated” and the “percentage of mitochondrial depolarisation” value (shortened to “percentage”) (HepG2 cells [6]; HepG2, JC-1, 14f 5 µM) was 7.90%. The “percentage” value (HepG2 cells [6]; HepG2, JC-1, 14f 10 µM) was 15.55%, the “percentage” value (HepG2 cells [6]; HepG2, JC-1, 14f 20 µM) was 40.46% and the “gene expression of Bax, caspase 9, and caspase 3” value [7] was “high gene expression”. The “gene expression of Bcl-2” value [7] was “suppressed” and the “expression levels of CDK2, CDK4, CDK6, cyclin D1, and cyclin E1 proteins” value [8] was “concentration-dependently downregulate”.
